# Measured values as given in patent US20040038369A1, “Airway-specific trypsin-like enzymes and method of using the same” (priority 2000, published 2004).
# Columns and labels:
# PAR-4 = biological target: T1, PAR-4 (Homo sapiens, UniProt Q96RI0); assay: Calcium influx in PAR-4-expressing insect cells; format: cell-based; conditions: AST 2 units/ml; trypsin, thrombin 0.1 to 10 units/mL
# T1 construct: expressed in transfected cells; host or cells: Sf9 insect cells infected with recombinant baculovirus VL-PAR (pVL1393)
# T1 sequence (Q96RI0 18-385): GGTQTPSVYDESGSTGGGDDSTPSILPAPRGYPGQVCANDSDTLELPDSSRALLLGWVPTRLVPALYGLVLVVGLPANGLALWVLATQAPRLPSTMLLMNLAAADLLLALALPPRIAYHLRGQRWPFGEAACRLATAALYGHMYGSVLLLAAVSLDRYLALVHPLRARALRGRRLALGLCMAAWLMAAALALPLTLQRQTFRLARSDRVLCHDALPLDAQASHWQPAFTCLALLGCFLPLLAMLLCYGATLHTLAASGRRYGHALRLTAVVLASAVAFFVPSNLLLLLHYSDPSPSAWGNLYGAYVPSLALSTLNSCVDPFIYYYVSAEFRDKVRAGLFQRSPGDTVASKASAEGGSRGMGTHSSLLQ
# Method: The above-obtained recombinant baculovirus VL-PAR for expressing the PAR was used to infect 1.0×10^7 Sf9 cells sowed on a 75 cm^2 flask at an MOI=2, and was then left and stationally cultured at 27° C. for 40 hours. After the culture, the infected cells were recovered and then subjected to a calcium influx experiment to-confirm the function of the PAR.
# The recovered infected cells (about 5×10^6 cells) were once washed with HEPES-Tyrode buffer solution-Ca^2+ (−) pH 7.4, and then suspended in 5 mL of HEPES-Tyrode buffer solution (containing Fura2-AM, 1 μg/mL) to load the Fura2-AM on the cells at 27° C. for 30 minutes. The suspension was centrifuged at 800 rpm at room temperature for 5 minutes to recover the cells. The cells were twice washed with HEPES-Tyrode buffer solution-Ca^2+ (−) pH 7.4 and then resuspended in 5 mL of HEPES-Tyrode buffer solution-Ca^2+ (−) pH 7.4. The cell suspension was mixed with 5 μL of 1M CaCl2 to give a final concentration of 1 mM CaCl2, and then incubated in a shaded state at room temperature for 5 minutes. The prepared Fura2-AM-loaded infected cells were dispensed into a 96 well plate in a volume of 100 μL/well, further subjected to the dispensation of HEPES-Tyrode buffer solution-C^2+ (+) pH 7.4 in a volume of 80 μL/well, and then assayed with a Fluorescence Drug Screening System (made by Hamamatsu Photonics Co.). […]
# [1] = tested on: normal human airway epithelial cells; assay: Calcium influx in normal human airway epithelial cells; format: cell-based; conditions: AST 2 units/mL; trypsin 10 to 100 units/mL; SFLLRNamide 100 μM
# Method: The Ca^2+ influx due to the AST was examined with confluent normal epithelial cells adhered to three 10 cm dishes (purchased from BioWhittaker Corp.). The cells were peeled with a 10 mM EDTA/HEPES-Tyrode buffer solution for 10 minutes, recovered by a centrifugal treatment at 800 rpm at room temperature for 5 minutes, and then resuspended in 5 mL of HEPES-Tyrode buffer solution-Ca^2+ (−) pH 7.4. The recovered cells (about 1.2×10^6 cells) were suspended in 5 mL of HEPES-Tyrode buffer solution (1 μg/mL, containing Fura2-AM) to load the Fura2-AM to the cells at 37° C. for one hour. The cells were recovered by a centrifugal treatment at 800 rpm at room temperature for 5 minutes, twice washed with HEPES-Tyrode buffer solution-Ca^2+ (−) pH 7.4, and then resuspended in […] of HEPES-Tyrode buffer solution-Ca^2+ (−) pH 7.4. The cell suspension was mixed with 5 μL of 1M CaCl2 to give a final concentration of 1 mM CaCl2, and then incubated in a shaded state at room temperature for 5 minutes. The prepared Fura2-AM-loaded infected cells were dispensed into a 96 well plate in a volume of 100 μL/well, further subjected to the dispensation of HEPES-Tyrode buffer solution-Ca^2+ (+) pH 7.4 in a volume of 80 μL/well, and then assayed with Fluorescence Drug Screening System (Hamamatsu Photonics Co.). […]
# HBEGF (Δ TM)-ALP = assay: Cleavage of HBEGF (Δ TM)-ALP due to HAST (western blotting); format: biochemical, human; conditions: recombinant HAST, 37° C. overnight
# Method: 293EBNA cell strain was sowed in a density of 9×10^6 cells/10 cm dish, cultured overnight, and then transfected with the human HBEGF-expressing plasmid: pEF9-HBEGF (Δ TM)-ALP prepared in 1). 12 μg of the pEF9-HBEGF (Δ TM)-ALP was subjected to a lipofection with 75 μL of Lipofectamine 2000 (produced by GIBCO-BRL). The lipofection was carried out according to an appended manual. 72 hour later, the cells were peeled with a pipette, and then centrifuged at 3000 rpm at 4° C. for five minutes. The lysate was dissolved in 12 mL of M-PER (produced by PIERCE Corp.), subjected to an SDS-polyacrylamide gel electrophoresis under a non-reducing condition, and then blotted on a nitrocellulose membrane (produced by BIO-RAD Corp.).
# The product blotted on the nitrocellulose membrane was treated with 3% BSA-containing PBS at 4° C. overnight and then reacted with the anti-human HB-EGF antibody (produced by GENZYME Corp., an antibody recognizing an EGFR-binding site) diluted with 1% BSA-containing PBS in a concentration of 1 μg/mL, at room temperature for one hour. The nitrocellulose membrane was washed with 0.05% Tween 20-containing PBS three times, and then reacted with Swine Anti-Goat Ig's-ALP antibody (produced by BIOSOURCE Corp.) diluted with 1% BSA-containing PBS in a concentration of 1 μg/mL at room temperature for one hour. […]
substance,measurement,setting,value
HAST: human airway-specific trypsin-like enzyme; propeptide moiety bound to trypsin-like protein moiety via a disulfide bond,Ca2+ influx,PAR-4,observed
same,Ca2+ influx,[1],observed
same,band reactive with the anti-human HB-EGF antibody,HBEGF (Δ TM)-ALP,shifted to a low molecular weight
